We go through two molecules from patent publication US12551494B2, “Pharmaceutical composition for preventing or treating dengue fever” (SEOUL NATIONAL UNIVERSITY R&DB FOUNDATION, priority 2021, dated 2026).

Data set [1] relates to DENV serotype 2. In words: GOViRA (graphene oxide-based viral RNA analysis) fluorescence antiviral assay / drug library screening in Vero E6 cells. It counts as cell-based, dengue virus. The protocol: Vero E6 cells were seeded onto 96-well, black wall, optical bottom plates at a density of 1.5×10^4 cells per well and incubated with DMEM supplemented with 10% FBS and P/S. After overnight incubation, the cells were briefly washed with 1× PBS and infected with DENV. Next, 20 pmol vPNA or β-actin PNA probe was mixed with 1.2 μg DRGON solution for 10 min at RT. The Vero E6 cells were treated with the PNA-DRGON complexes for 5 h. The plates were incubated for up to 72 h, and cell nuclei were counterstained with Hoechst 33342. Fluorescent images were obtained by the IN Cell Analyzer 2000 (GE Healthcare) and DeltaVision Elite (GE Healthcare) imaging system. The quantification of data was processed with the IN Cell Developer software (https://cyvitalifesciences.com).
For the drug library screening experiments, 1.5×10^4 Vero E6 cells in a total volume of 100 μL per well were seeded onto 96-well, black wall, optical bottom plates using DMEM media supplemented with 10% FBS and P/S and incubated overnight. Next, the cells were pretreated with 50 μL of experimental compounds or vehicle in DMEM supplemented with 2% FBS and P/S and incubated 1 h at 37° C. Next, 50 μL of DENV (a final MOI of 0.5) were added to each well, resulting in a 10 μM final concentration for each compound and cells were incubated for 48 h.
Infection was stopped by rinsing each well with 1× PBS, and the infected cells were treated with the PNA-DRGON complexes for 5 h at 37° C. and then briefly washed with 1× PBS. Fluorescent images were obtained by the IN Cell Analyzer 2000, and quantification of the data was processed using the IN Cell Developer software.
To determine its systemic reliability as a high-throughput screening assay, we used Z′-factor as a statistical parameter. […] To further verify whether the GOViRA system is capable of the quantitative analysis of antiviral activity, we utilized the system to investigate the cellular effect caused by a model representative antiviral compound, Ribavirin. […]

The test system of data set [2] is DENV serotype 2. In words: Focus-forming assay (FFA) in Vero E6 cells. It counts as cell-based, dengue virus. The procedure:
The virus was titrated by FFA in Vero E6 cells. Ten-fold serial diluted virus in DMEM supplemented with 2% FBS and P/S was added onto confluent Vero E6 cell monolayers attached to 96-well, black wall, optical bottom plates (Corning) and incubated for 1 h. After the incubation, the wells were overlaid with 100 μL of DMEM with 10% FBS, P/S, and methylcellulose and incubated for 2 days. Following the incubation, cell monolayers were fixed with 4% paraformaldehyde and then treated with blocking solution for 1 h. Samples were then treated with the anti-Dengue virus E protein antibody (GeneTex, GTX127277), followed by FITC-labeled goat anti-mouse IgG secondary antibody (Sigma-Aldrich, F0257).
(§1) Standard assays were done to check the antiviral effect and cytotoxicity of ulipristal in vitro. The activity of ulipristal against DENV was evaluated by both FFA and qRT-PCR. For the FFA, Vero E6 cells were infected with DENV in the presence of various concentrations of ulipristal.
(§2) The anti-DENV activity was assessed by immunostaining with antibodies specific to the DENV E protein. […] The cytotoxicity of the compound in the Vero E6 cells was determined by the CCK-8 assay.

The subject of data set [3] is Vero E6 cells. In words: Cell viability test (CCK-8 assay). It counts as cell-based. The procedure:
The CCK-8 assay was performed according to the manufacturer's instructions. Vero E6, Huh7, and A549 cells were seeded in 96-well culture plates with 100 μL of complete media. After 24 h of incubation, the cells were treated with nanomaterials or drug in serially diluted concentrations for 48 h. The cells were rinsed with 1× PBS twice, and CCK-8 reagent was treated at a concentration of 10% (v/v) and incubated for 1 h. The optical density at 450 nm was measured by SynergyMx (Biotek) in the absorbance mode.
On the technique in general: Tetrazolium dyes change colour on reduction, which living cells bring about.

Data set [4] concerns DENV. In words: qRT-PCR analysis of viral RNA in DENV-infected Vero E6 cells. It counts as cell-based, dengue virus. The conditions noted are these: dose-dependent treatment. The protocol:
(§3) Total RNA was extracted using Trizol (Invitrogen). The cDNA samples were prepared by reverse transcription using SuperScript II Reverse Transcriptase (Invitrogen). The synthesized cDNA samples were subjected to qRT-PCR with primers specific for each gene by using the PowerUp SYBR Green Master Mix (Applied Biosystems) and CFX Connect (Bio-Rad).
as §1, §2
(Quantitative PCR measures a nucleic acid by following its amplification.)

Data set [5] concerns DENV. The experiment in a line: DENV infection in Huh7 cells (qRT-PCR of viral RNA, E protein immunostaining). It counts as cell-based, dengue virus. The procedure:
as §3
(§4) We further validated the antiviral activity of ulipristal using Huh7 (liver carcinoma cell line) and A549 (lung carcinoma cell line) cell lines as hosts for the DENV infection. Both cell monolayers were analyzed with qRT-PCR to observe the relative DENV RNA level. […] Moreover, the fluorescence signal of the viral E protein from immunostaining also was reduced by the ulipristal treatment (FIG. 11C).

Data set [6] relates to DENV. In words: DENV infection in A549 cells (qRT-PCR of viral RNA, E protein immunostaining). It counts as cell-based, dengue virus. The procedure:
as §3, §4

Data set [7] deals with DENV (KBPV-VR-29). In words: Murine DENV infection model (AG129 mice). It counts as in vivo. The procedure:
AG129 mice (8-10 weeks old, female) were purchased from Marshall BioResources and housed under pathogen-free conditions. Animal research was approved by the Institutional Animal Care and Use Committee of Seoul National University and was performed according to the guidelines of the recommendations from the Association for Assessment and Accreditation of Laboratory Animal Care.
The murine DENV infection model was as described in previous study (Park, S. J., Kim, J., Kang, S., Cha, H. J., Shin, H., Park, J., Jang, Y. S., Woo, J. S., Won, C., Min, D. H., 2020. Sci Adv 6 (22), eaaz8201.). AG129 mice were exposed with a target dose of […] of the DENV by intraperitoneal injection. One hour after the challenge, the animals were treated with ulipristal. The compound was dissolved in sesame oil at a 10× concentration and further diluted in 1× PBS. Ulipristal was administered to the animals by intraperitoneal injection.
Animals in the vehicle control groups were administered a solution with no drug. The animals were monitored for weight, morbidity (ruffled fur, hunched posture, etc.), and survival daily for a total of 14 days after infection. Mice with a weight <80% of their initial body weight were humanely euthanized. At 3 days p.i., mice were sacrificed from each group. Blood and organ samples were collected. Blood was clarified by centrifugation, and viremia was determined by qRT-PCR. Organs were homogenized, and total RNA was extracted using Trizol. The relative DENV RNA level from each organ was determined by qRT-PCR.
Organ samples were fixed with 4% paraformaldehyde and embedded in paraffin. Paraffin sections were stained with H&E at the pathology core facility in the Center for Medical Innovation, Seoul National University Hospital, Korea.
The DENV strain we used (KBPV-VR-29) has been reported as a mouse-adapted virus strain. […] One hour after the infection, the animals were treated with ulipristal or vehicle over 14 days, and survival was monitored during that period.
Ulipristal was given at a dose of 15 mg/kg every day through intraperitoneal injection.

Data set [8] deals with PR. The experiment in a line: qRT-PCR analysis of PR expression in A549 cells. It counts as cell-based. The conditions noted are these: 24 h of incubation. The procedure: as §3
A time-of-addition experiment was performed to determine which time point of the viral infection stage is affected by the administration of ulipristal. Because ulipristal is widely known as an SPRM compound, we chose a cell line without PR expression to exclude the influence of PR signaling on the time-of-addition experiment. […] After 24 h of incubation, the RNA expression level of each group was analyzed. There was no PR expression in the NT group (FIG. 13). […] Therefore, we examined the mode of action of ulipristal using the A549 cell line.

The subject of data set [9] is DENV. The experiment in a line: Time-of-addition assay in A549 cells. It counts as cell-based, dengue virus. The following applies: 48 h p.i. The procedure:
A549 cells were seeded onto 24-well plates. After incubation overnight, cells were treated with ulipristal at the various time points and inoculated with DENV. At 48 h p.i., the cells were washed with 1× PBS and processed for qRT-PCR.
A549 cells were treated with ulipristal in three different conditions: treatment before the infection (pre-treatment), treatment along with the infection (co-treatment), and treatment after the infection (post-treatment) (FIG. 14A). […] Furthermore, the degree of inhibitory effect was decreased as the ulipristal administration was delayed (FIG. 14B).

Setting [10] is: 15 mg/kg every day i.p., day 3 p.i.

Values joined by “and” are separate entries in the source; they are usually repeats but may differ in a detail not shown here. Equal values may be shown once.

Consider `CC(=O)[C@@]1(O)CC[C@H]2[C@@H]3CCC4=CC(=O)CCC4=C3[C@@H](c3ccc(N(C)C)cc3)C[C@@]21C` [ulipristal], for which, in data set [1] (10 μM, Vero E6 cells, pretreated 1 h, MOI 0.5, 48 h), the “fluorescence signal decrease in drug library screening” value was < 25%. The EC50 in data set [2] (DENV serotype 2, read-out: half-effective concentration (EC50), anti-DENV activity by FFA) was 8.3 µM and 8.28 µM. Further, the “number of foci (FFA, DENV E protein immunostaining)” value in [2] (various concentrations) is “number of foci decreased in a dose-dependent manner”. The “cell viability in drug library screening” value in data set [3] (10 μM) was “minimal effects on cell viability”. For the same molecule, the “cytotoxicity / cell viability (CCK-8)” value in data set [3] (48 h) is reported as “no impact on cell viability”. Besides, the “relative expression level of viral RNA (qRT-PCR)” value in [4] is given as “active against DENV”. Further, the “fluorescence signal of viral E protein (immunostaining)” value in data set [5] and in data set [6] was “reduced” in each case. The “relative DENV RNA level (qRT-PCR)” value in [5] and in data set [6] was “inhibited the DENV infection in both cell lines dose-dependently” each time. Moreover, the “spleen histology (H&E), white-pulp/red-pulp boundary loss” value in data set [7] (15 mg/kg every day i.p.) is “boundary loss was decreased”. The “viral RNA load in organs (spleen, lung, liver, large intestine)” value in data set [7] (setting [10]) is given as “significantly decreased”. Also, the “viral RNA load in the small intestine, difference vs vehicle” value in data set [7] (setting [10]) is on record as “not statistically significant”. For the same molecule, the “viremia in the blood (qRT-PCR)” value in [7] (15 mg/kg every day i.p., day 3 p.i., vs control group) is “significantly reduced viremia”. Also, the “liver histology (H&E): nuclear pleomorphism of hepatocytes, dilatation of sinusoids, focal necrosis” value in data set [7] (15 mg/kg every day i.p., vs control group) is reported as “significant reduction of such symptoms”. Further, the survival result in data set [7] (15 mg/kg every day, intraperitoneal, 14 days, log-rank test) is given as “statistically significant survival benefit (P=0.0007)”. Besides, the “relative body weight change and disease symptoms” value in [7] (15 mg/kg every day, intraperitoneal, DENV 1×107 FFU i.p., 14 days) is given as “Compared to the ulipristal-treated group, the control group exhibited a huge weight loss”. For the same molecule, the “levels of PR expression (qRT-PCR)” value in [8] is reported as “did not influence the levels of PR expression”. Also, the “intracellular viral RNA level, antiviral effect” value in data set [9] (co-treatment (along with the infection)) is on record as “antiviral effect by the administration of the drug was observed”; in data set [9] (post-treatment (after the virus inoculation)), “less inhibitory effect”; in data set [9] (pre-treatment (before the infection)), “antiviral effect by the administration of the drug was observed”.

`NC(=O)c1ncn([C@@H]2O[C@H](CO)[C@@H](O)[C@H]2O)n1` [ribavirin, Ribavirin]: the “fluorescence signal (GOViRA), dose response” value in data set [1] (DENV-infected Vero E6 cells) is “serial decrease in the fluorescence signal dose-dependently”. In addition, the EC50 in [1] (Dengue virus, Vero C1008, DENV-infected Vero E6 cells, concentrations 6.25 μM to 400 μM, PNA-DRGON complex after 48 hours, read-out: EC50 value for DENV serotype 2 (GOViRA system)) was 49.2 ± 0.2 µM.
